Several values for one entry are separate records, joined by “and”; a condition that tells them apart may be missing. Equal values may be shown once. Marks after values point to notes of the source that are not given here.
Tested on: Male beagle dogs
Assay: Serum total cholesterol in beagle dogs (serum lipid measurements)
Format: in vivo
Settings: for TOTAL SERUM CHOLESTEROL / SERUM TOTAL CHOLESTEROL: n = 6; for decrease in serum total cholesterol concentration: compared to vehicle
Description: Male beagle dogs (9-10 kg) obtained from Marshall farms were fed a normal chow diet once a day for a two hour interval and given water ad libitum. Prior to initiating treatment, the dogs were weighed and blood samples were drawn from the cephalic vein of each dog following an overnight fast to evaluate pretreatment serum total cholesterol levels at the start of the study. […] All doses were administered in gelatin capsules per os to each dog between 9:00-9:30 a.m. prior to feeding. All animals were fed between 9:30-10:00 a.m. and were allowed two hours to eat, at which time any remaining food was removed. […] Animals were dosed daily for three weeks and blood samples were taken at the end of each week after an overnight fast for comparison with pretreatment serum total cholesterol levels. Three consecutive 24 hour fecal samples were collected for each group during the last 72 hours of each week and used to measure the concentration of fecal biles acids excreted during that time period.
Blood was collected from the cephalic vein of each dog into serum separator tubes. The blood was centrifuged at 900×g for 20 minutes at room temperature and the serum decanted. All analyses were performed on a Cobas Mira Clinical Analyzer System (Roche Diagnostic Systems, Branchburg, N.J.) using Roche Diagnostic reagents for enzymatic determinations of serum cholesterol. Commercial calibrator and quality control materials were analyzed with each run to verify assay accuracy and precision. A two-tailed, paired Students t-test was used to determine the statistical significance of changes in serum total cholesterol in treated dogs compared to pretreatment values. A one-way analysis of variance (“ANOVA”) was used to compare each pair of treatment groups to determine the statistical significance of changes in serum total cholesterol.
Beagle dogs also were administered pravastatin to evaluate the monotherapeutic effect of pravastatin on serum total cholesterol.
Male beagle dogs (9-10 kg) obtained from Marshall farms were fed once a day for two hours and given water ad libitum. Prior to initiating treatment, blood samples were drawn from the cephalic vein of each dog to evaluate pretreatment total serum cholesterol levels at the start of the study.
For the dose ranging study, the dogs were assigned to one of five groups based on mean body weights and serum total cholesterol levels. Each group received one of the following dosages: (1) vehicle (empty capsule, afternoon dosing), (2) 3.0 mg/kg/day pravastatin (afternoon dosing), (3) 10 mg/kg/day pravastatin (afternoon dosing), (4) 30 mg/kg/day pravastatin (afternoon dosing), and (5) 10 mg/kg/day pravastatin (morning dosing). One capsule containing pravastatin was administered per os to each dog between 9:00-9:30 a.m. prior to feeding for the 10 mg/kg/day morning dosing group and between 2:30-3:00 p.m. for the afternoon dosing groups. All animals were fed between 9:30-10:00 a.m. and were allowed two hours to eat, at which time any remaining food was removed. […] Animals were dosed daily for four weeks and blood samples were taken at the end of each week after an overnight fast for comparison with pretreatment serum total cholesterol levels.
Following this initial four week dose-ranging study, dogs from the two groups receiving 10 mg/kg/day pravastatin (a.m. and p.m. dosing groups) were randomized into two new treatment groups based on serum total cholesterol levels to initiate the combination treatment study. […] Dosing continued in this manner for an additional four weeks (Weeks 5-8) with blood and 48-hour fecal samples collected at the end of each week for serum lipid measurements and fecal bile acid determinations, respectively.

CC[C@H](C)C(=O)O[C@H]1C[C@H](O)C=C2C=C[C@H](C)[C@H](CC[C@@H](O)C[C@@H](O)CC(=O)O)[C@H]21 [pravastatin, Pravastatin]
TOTAL SERUM CHOLESTEROL (pravastatin 10.0 mg/kg/day pm dosing, Week 3, mean ± SEM): 128 ± 9^3 mg/dL
% change in serum total cholesterol compared to the pretreatment value of each group (pravastatin 10.0 mg/kg/day pm dosing, Week 4): (−21) %
TOTAL SERUM CHOLESTEROL (pravastatin 10.0 mg/kg/day pm dosing, Week 4, mean ± SEM): 126 ±8 mg/dL and 126 ± 8^3 mg/dL
% change in serum total cholesterol compared to the pretreatment value of each group (pravastatin 16.0 mg/kg/day, Week 1): (−8) %
SERUM TOTAL CHOLESTEROL (pravastatin 16.0 mg/kg/day, Week 1, mean ± SEM): 142 ± 8 mg/dL
% change in serum total cholesterol compared to the pretreatment value of each group (pravastatin 16.0 mg/kg/day, Week 2): (−12) %
SERUM TOTAL CHOLESTEROL (pravastatin 16.0 mg/kg/day, Week 2, mean ± SEM): 137 ± 12^2 mg/dL
% change in serum total cholesterol compared to the pretreatment value of each group (pravastatin 16.0 mg/kg/day, Week 3): (−14) %
decrease in serum total cholesterol concentration (pravastatin 16.0 mg/kg/day, one week of treatment): 8%
decrease in serum total cholesterol concentration (pravastatin 16.0 mg/kg/day, three weeks of treatment): 14%
% change in serum total cholesterol compared to the pretreatment value of each group (pravastatin 30.0 mg/kg/day pm dosing, Week 1): (+2) %
TOTAL SERUM CHOLESTEROL (pravastatin 30.0 mg/kg/day pm dosing, Week 1, mean ± SEM): 164 ± 10 mg/dL
% change in serum total cholesterol compared to the pretreatment value of each group (pravastatin 30.0 mg/kg/day pm dosing, Week 2): (−18) %
TOTAL SERUM CHOLESTEROL (pravastatin 30.0 mg/kg/day pm dosing, Week 2, mean ± SEM): 132 ± 8^3 mg/dL
% change in serum total cholesterol compared to the pretreatment value of each group (pravastatin 30.0 mg/kg/day pm dosing, Week 3): (−18) %
TOTAL SERUM CHOLESTEROL (pravastatin 30.0 mg/kg/day pm dosing, Week 3, mean ± SEM): 132 ± 11^3 mg/dL
% change in serum total cholesterol compared to the pretreatment value of each group (pravastatin 30.0 mg/kg/day pm dosing, Week 4): (−20) %
TOTAL SERUM CHOLESTEROL (pravastatin 30.0 mg/kg/day pm dosing, Week 4, mean ± SEM): 128 ± 7^3 mg/dL
lowering of serum total cholesterol (pravastatin 30 mg/kg/day, four week dose ranging study): 20%
total decrease in serum total cholesterol compared to the pretreatment value (pravastatin monotherapy 10 mg/kg/day, Week 8): 30%
% change from Week 0 in total serum cholesterol (pravastatin monotherapy 10 mg/kg/day, dosed Weeks 1-11, Week 1): (−2) %
TOTAL SERUM CHOLESTEROL (pravastatin monotherapy 10 mg/kg/day, dosed Weeks 1-11, Week 1, mean ± SEM): 157 ± 10 mg/dL
% change from Week 0 in total serum cholesterol (pravastatin monotherapy 10 mg/kg/day, dosed Weeks 1-11, Week 2): (−16) %
TOTAL SERUM CHOLESTEROL (pravastatin monotherapy 10 mg/kg/day, dosed Weeks 1-11, Week 2, mean ± SEM): 135 ± 17 mg/dL
% change from Week 0 in total serum cholesterol (pravastatin monotherapy 10 mg/kg/day, dosed Weeks 1-11, Week 3): (−18) %
TOTAL SERUM CHOLESTEROL (pravastatin monotherapy 10 mg/kg/day, dosed Weeks 1-11, Week 3, mean ± SEM): 132 ± 13 mg/dL
% change from Week 0 in total serum cholesterol (pravastatin monotherapy 10 mg/kg/day, dosed Weeks 1-11, Week 4): (−19) %
TOTAL SERUM CHOLESTEROL (pravastatin monotherapy 10 mg/kg/day, dosed Weeks 1-11, Week 4, mean ± SEM): 130 ± 9 [a] mg/dL
% change from Week 0 in total serum cholesterol (pravastatin monotherapy 10 mg/kg/day, dosed Weeks 1-11, Week 5): (−21) %
TOTAL SERUM CHOLESTEROL (pravastatin monotherapy 10 mg/kg/day, dosed Weeks 1-11, Week 5, mean ± SEM): 127 ± 9 [a] mg/dL
% change from Week 0 in total serum cholesterol (pravastatin monotherapy 10 mg/kg/day, dosed Weeks 1-11, Week 6): (−27) %
TOTAL SERUM CHOLESTEROL (pravastatin monotherapy 10 mg/kg/day, dosed Weeks 1-11, Week 6, mean ± SEM): 117 ± 10 [a] mg/dL
% change from Week 0 in total serum cholesterol (pravastatin monotherapy 10 mg/kg/day, dosed Weeks 1-11, Week 7): (−25) %
TOTAL SERUM CHOLESTEROL (pravastatin monotherapy 10 mg/kg/day, dosed Weeks 1-11, Week 7, mean ± SEM): 121 ± 7 [a] mg/dL
% change from Week 0 in total serum cholesterol (pravastatin monotherapy 10 mg/kg/day, dosed Weeks 1-11, Week 8): (−30) %
TOTAL SERUM CHOLESTEROL (pravastatin monotherapy 10 mg/kg/day, dosed Weeks 1-11, Week 8, mean ± SEM): 113 ±9 mg/dL and 113 ± 9 [a] mg/dL
% change from Week 0 in total serum cholesterol (pravastatin monotherapy 10 mg/kg/day, dosed Weeks 1-11, Week 9): (−26) %
TOTAL SERUM CHOLESTEROL (pravastatin monotherapy 10 mg/kg/day, dosed Weeks 1-11, Week 9, mean ± SEM): 119 ± 8 [a] mg/dL
% change from Week 0 in total serum cholesterol (pravastatin monotherapy 10 mg/kg/day, dosed Weeks 1-11, Week 10): (−27) %
TOTAL SERUM CHOLESTEROL (pravastatin monotherapy 10 mg/kg/day, dosed Weeks 1-11, Week 10, mean ± SEM): 118 ± 9 [a] mg/dL
% change from Week 0 in total serum cholesterol (pravastatin monotherapy 10 mg/kg/day, dosed Weeks 1-11, Week 11): (−27) %
TOTAL SERUM CHOLESTEROL (pravastatin monotherapy 10 mg/kg/day, dosed Weeks 1-11, Week 11, mean ± SEM): 118 ± 8 [a] mg/dL
% change from Week 0 in total serum cholesterol (pravastatin monotherapy group, dosing terminated after Week 11, Week 12): (−19) %
TOTAL SERUM CHOLESTEROL (pravastatin monotherapy group, dosing terminated after Week 11, Week 12, mean ± SEM): 131 ± 9 [a] mg/dL
% change from Week 0 in total serum cholesterol (pravastatin monotherapy group, dosing terminated after Week 11, Week 13): (−9) %
TOTAL SERUM CHOLESTEROL (pravastatin monotherapy group, dosing terminated after Week 11, Week 13, mean ± SEM): 147 ± 9 mg/dL
% change from Week 0 in total serum cholesterol (pravastatin monotherapy group, dosing terminated after Week 11, Week 14): (−11) %
TOTAL SERUM CHOLESTEROL (pravastatin monotherapy group, dosing terminated after Week 11, Week 14, mean ± SEM): 144 ± 12 mg/dL
